Measurements: US8017602B2, “N-(2-(2-(5-hydroxy-3-oxo-3,4-dihydro-2H-benzo[b][1,4]oxazin-8-yl)ethylamino)ethyl)-3-(phenethoxy)propanamide derivatives, processes for their preparation, pharmaceutical compositions containing them and their use in therapy” (AstraZeneca AB, priority 2008, dated 2011)
Where a name gives a salt, the structure may show the parent alone.

Tests used:
Adrenergic β2 = biological target: T1, Adrenergic β2 (Homo sapiens, UniProt P07550); experiment: Adrenergic β2 mediated cAMP production in H292 cells (AlphaScreen cAMP detection); assay type: cell-based; conditions: for β2 Int Act: Intrinsic Activity, fraction relative to the maximum activity determined for formoterol; for EC50: cAMP production, 60 min at room temperature, 300 μM rolipram, read-out: β2 pEC50 (converted)
T1 construct: Adherent H292 cells were removed from tissue culture flasks; endogenous in cells; host or cells: H292 cells
Method: H292 cells were grown in 225 cm2 flasks incubator at 37° C., 5% CO2 in RPMI medium containing, 10% (v/v) FBS (foetal bovine serum) and 2 mM L-glutamine.
Adherent H292 cells were removed from tissue culture flasks by treatment with Accutase™ cell detachment solution for 15 min. Flasks were incubated for 15 min in a humidified incubator at 37° C., 5% CO2. Detached cells were re-suspended in RPMI media (containing 10% (v/v) FBS and 2 mM L-glutamine) at […]. 10000 cells in 100 μl were added to each well of a tissue-culture-treated 96-well plate and the cells incubated overnight in a humidified incubator at 37° C., 5% CO2. The culture media was removed and cells were washed twice with 100 μl assay buffer and replaced with 50 μL assay buffer (HBSS solution containing 10 mM HEPES pH7.4 and 5 mM glucose). Cells were rested at room temperature for 20 min after which time 25 μl of rolipram (1.2 mM made up in assay buffer containing 2.4% (v/v) dimethylsulphoxide) was added. Cells were incubated with rolipram for 10 min after which time test compounds were added and the cells were incubated for 60 min at room temperature. The final rolipram concentration in the assay was 300 μM and final vehicle concentration was 1.6% (v/v) dimethylsulphoxide. The reaction was stopped by removing supernatants, washing once with 100 μL assay buffer and replacing with 50 μL lysis buffer. The cell monolayer was frozen at −80° C. for 30 min (or overnight).
AlphaScreen™ cAMP Detection
The concentration of cAMP (cyclic adenosine monophosphate) in the cell lysate was determined using AlphaScreen™ methodology. The frozen cell plate was thawed for 20 min on a plate shaker then 10 μl of the cell lysate was transferred to a 96-well white plate. 40 μL of mixed AlphaScreen™ detection beads pre-incubated with biotinylated cAMP, was added to each well and the plate incubated at room temperature for 10 h in the dark. The AlphaScreen™ signal was measured using an EnVision spectrophotometer (Perkin-Elmer Inc.) with the recommended manufacturer's settings. cAMP concentrations were determined by reference to a calibration curve determined in the same experiment using standard cAMP concentrations. Concentration response curves for agonists were constructed and data was fitted to a four parameter logistic equation to determine both the pEC50 and Intrinsic Activity. Intrinsic Activity was expressed as a fraction relative to the maximum activity determined for formoterol in each experiment.

[1] = biological target: T2, recombinant human adrenergic beta 1 receptors (Homo sapiens, UniProt P08588); experiment: Adrenergic β1 selectivity binding assay ([125I]-Iodocyanopindolol); conditions: inhibition of [125I]-Iodocyanopindolol binding, human β1 membranes; read-out: β1 bind p IC50 (converted)
T2 construct: purchased Euroscreen
Method: (§1) Membranes containing recombinant human adrenergic beta 1 receptors were obtained from Euroscreen. These were diluted in Assay Buffer (50 mM HEPES, 1 mM EDTA, 120 mM NaCl, 0.1% gelatin, pH 7.4) to provide a final concentration of membranes that gave a clear window between maximum and minimum specific binding.
Assays were performed in U-bottomed 96-well polypropylene plates. 10 μL [^125I]-Iodocyanopindolol (0.036 nM final concentration) and 10 μL of test compound (10× final concentration) were added to each test well. For each assay plate 8 replicates were obtained for [^125I]-Iodocyanopindolol binding in the presence of 10 μl vehicle (10% (v/v) DMSO in Assay Buffer; defining maximum binding) or 10 μl Propranolol (10 μM final concentration; defining non-specific binding (NSB)). Membranes were then added to achieve a final volume of 100 μL. The plates were incubated for 2 h at room temperature and then filtered onto PEI coated GF/B filter plates, pre-soaked for 1 h in Assay Buffer, using a 96-well plate Tomtec cell harvester. Five washes with 250 μL wash buffer (50 mM HEPES, 1 mM EDTA, 120 mM NaCl, pH 7.4) were performed at 4° C. to remove unbound radioactivity. The plates were dried then sealed from underneath using Packard plate sealers and MicroScint-O (50 μl) was added to each well. The plates were sealed (TopSeal A) and filter-bound radioactivity was measured with a scintillation counter (TopCount, Packard BioScience) using a 3-minute counting protocol.
(§2) Total specific binding (B0) was determined by subtracting the mean NSB from the mean maximum binding. NSB values were also subtracted from values from all other wells. […] Data was fitted to a four parameter logistic equation to determine the compound potency, which was expressed as pIC50 (negative log molar concentration inducing 50% inhibition of [^125I]-Iodocyanopindolol binding).

[2] = biological target: T3, recombinant human Dopamine Subtype D2s receptors (Homo sapiens, UniProt P14416); experiment: Dopamine D2 selectivity binding assay ([3H]-spiperone); conditions: inhibition of [3H]-spiperone binding, human D2s membranes; read-out: D2 bind pIC50 (converted)
T3 construct: purchased Perkin Elmer
Method: as §1, with “Dopamine Subtype D2s” for “adrenergic beta 1”, “Perkin Elmer.” for “Euroscreen.”
Assays were performed in U-bottomed 96-well polypropylene plates. 30 μL [^3H]-spiperone (0.16 nM final concentration) and 30 μl of test compound (10× final concentration) were added to each test well. For each assay plate 8 replicates were obtained for [^3H]-spiperone binding in the presence of 30 μL vehicle (10% (v/v) DMSO in Assay Buffer; defining maximum binding) or 30 μl Haloperidol (10 μM final concentration; defining non-specific binding (NSB)). Membranes were then added to achieve a final volume of 300 μL. The plates were incubated for 2 h at room temperature and then filtered onto PEI coated GF/B filter plates, pre-soaked for 1 h in Assay Buffer, using a 96-well plate Tomtec cell harvester. Five washes with 250 μl wash buffer (50 mM HEPES, 1 mM EDTA, 120 mM NaCl, pH 7.4) were performed at 4° C. to remove unbound radioactivity. The plates were dried then sealed from underneath using Packard plate sealers and MicroScint-O (50 μl) was added to each well. The plates were sealed (TopSeal A) and filter-bound radioactivity was measured with a scintillation counter (TopCount, Packard BioScience) using a 3-minute counting protocol.
as §2, with “[^3H]-spiperone” for “[^125I]-Iodocyanopindolol”

T3 sequence (P14416 1-414 isoform P14416-2): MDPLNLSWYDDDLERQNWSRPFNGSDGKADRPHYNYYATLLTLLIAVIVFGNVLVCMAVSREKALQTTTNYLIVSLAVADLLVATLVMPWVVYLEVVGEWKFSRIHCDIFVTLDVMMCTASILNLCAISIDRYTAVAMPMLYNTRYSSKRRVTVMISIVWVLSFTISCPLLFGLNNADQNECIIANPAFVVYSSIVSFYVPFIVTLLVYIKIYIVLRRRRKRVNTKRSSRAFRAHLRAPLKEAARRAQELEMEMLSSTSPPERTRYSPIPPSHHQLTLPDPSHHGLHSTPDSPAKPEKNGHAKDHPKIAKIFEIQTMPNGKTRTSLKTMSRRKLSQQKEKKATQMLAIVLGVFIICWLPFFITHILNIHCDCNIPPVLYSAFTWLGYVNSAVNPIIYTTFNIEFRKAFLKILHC
T1 sequence (P07550 whole entry): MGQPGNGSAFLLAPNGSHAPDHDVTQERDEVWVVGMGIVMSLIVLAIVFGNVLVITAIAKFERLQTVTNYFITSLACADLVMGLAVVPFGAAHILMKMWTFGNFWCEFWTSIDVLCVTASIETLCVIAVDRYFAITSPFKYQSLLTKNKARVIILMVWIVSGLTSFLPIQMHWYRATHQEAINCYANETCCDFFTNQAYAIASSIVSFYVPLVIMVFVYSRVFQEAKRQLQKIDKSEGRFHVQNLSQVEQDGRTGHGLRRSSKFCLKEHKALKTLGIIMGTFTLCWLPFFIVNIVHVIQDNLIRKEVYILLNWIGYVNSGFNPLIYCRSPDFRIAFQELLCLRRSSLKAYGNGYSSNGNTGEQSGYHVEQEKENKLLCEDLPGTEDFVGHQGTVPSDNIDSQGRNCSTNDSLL
T2 sequence (P08588 whole entry): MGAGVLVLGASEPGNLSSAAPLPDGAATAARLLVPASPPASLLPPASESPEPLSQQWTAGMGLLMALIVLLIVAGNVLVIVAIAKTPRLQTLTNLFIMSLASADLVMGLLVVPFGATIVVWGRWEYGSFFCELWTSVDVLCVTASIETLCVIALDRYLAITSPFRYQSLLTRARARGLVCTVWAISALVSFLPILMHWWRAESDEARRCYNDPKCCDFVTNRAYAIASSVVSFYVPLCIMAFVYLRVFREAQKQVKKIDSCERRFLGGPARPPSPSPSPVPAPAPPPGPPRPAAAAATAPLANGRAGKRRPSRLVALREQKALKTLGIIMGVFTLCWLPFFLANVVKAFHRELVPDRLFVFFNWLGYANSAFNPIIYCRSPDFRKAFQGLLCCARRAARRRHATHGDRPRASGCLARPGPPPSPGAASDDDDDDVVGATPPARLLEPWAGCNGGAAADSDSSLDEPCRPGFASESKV

Row | Compound | β2 Int Act (Adrenergic β2) | EC50 (Adrenergic β2) | IC50 [1] | IC50 [2]
1 | Cn1cc(-c2cc(CCOCCC(=O)N(CCNCCc3ccc(O)c4c3OCC(=O)N4)C3CCCCC3)ccc2F)cn1 [Example 13, N-Cyclohexyl-3-(4-fluoro-3-(1-methyl-1H-pyrazol-4-yl)phenethoxy)-N-(2-(2-(5-hydroxy-3-oxo-3,4-dihydro-2H-benzo[b][1,4]oxazin-8-yl)ethylamino)ethyl)propanamide Trifluoroacetic Acid Salt] | 0.85 | 10 nM | 6310 nM | 3160 nM
2 | CCn1cc(-c2cccc(CCOCCC(=O)N(CCNCCc3ccc(O)c4c3OCC(=O)N4)[C@H](C)C(C)(C)C)c2)cn1 [Example 25, (R)—N-(3,3-Dimethylbutan-2-yl)-3-(3-(1-ethyl-1H-pyrazol-4-yl)phenethoxy)-N-(2-(2-(5-hydroxy-3-oxo-3,4-dihydro-2H-benzo[b][1,4]oxazin-8-yl)ethylamino)ethyl)propanamide Trifluoroacetic Acid Salt] | 0.90 | 12.6 nM | > 10000 nM | 3980 nM
3 | CCC[C@@H](C)N(CCNCCc1ccc(O)c2c1OCC(=O)N2)C(=O)CCOCCc1cccc(-c2cnn(C(C)C)c2)c1 [Example 21, (R)—N-(2-(2-(5-Hydroxy-3-oxo-3,4-dihydro-2H-benzo[b][1,4]oxazin-8-yl)ethylamino)ethyl)-3-(3-(1-isopropyl-1H-pyrazol-4-yl)phenethoxy)-N-(pentan-2-yl)propanamide Trifluoroacetic Acid Salt] | 1.00 | 12.6 nM | 6310 nM | 3160 nM
4 | O=C1COc2c(CCNCCN(C(=O)CCOCCc3cccc(-c4cnn(CC5CC5)c4)c3)C3CCCC3)ccc(O)c2N1 [Example 19, N-Cyclopentyl-3-(3-(1-(cyclopropylmethyl)-1H-pyrazol-4-yl)phenethoxy)-N-(2-(2-(5-hydroxy-3-oxo-3,4-dihydro-2H -benzo[b][1,4]oxazin-8-yl)ethylamino)ethyl)propanamide Trifluoroacetic Acid Salt] | 0.95 | 6.31 nM | 3980 nM | 2510 nM
5 | CC(C)[C@@H](C)N(CCNCCc1ccc(O)c2c1OCC(=O)N2)C(=O)CCOCCc1cccc(-c2cnn(C)c2)c1 [Example 09, (R)—N-(2-(2-(5-Hydroxy-3-oxo-3,4-dihydro-2H-benzo[b][1,4]oxazin-8-yl)ethylamino)ethyl)-3-(3-(1-methyl-1H-pyrazol-4-yl)phenethoxy)-N-(3-methylbutan-2-yl)propanamide Trifluoroacetic Acid Salt] | 0.92 | 7.94 nM | > 10000 nM | > 10000 nM

Continued, values first:

Row | β2 Int Act (Adrenergic β2) | EC50 (Adrenergic β2) | IC50 [1] | IC50 [2] | Compound
6 | 0.88 | 12.6 nM | > 10000 nM | 2510 nM | C[C@@H](N(CCNCCc1ccc(O)c2c1OCC(=O)N2)C(=O)CCOCCc1cccc(-c2cnn(C)c2)c1)C(C)(C)C [Example 26, (R)—N-(3,3-Dimethylbutan-2-yl)-N-(2-(2-(5-hydroxy-3-oxo-3,4-dihydro-2H-benzo[b][1,4]oxazin-8-yl)ethylamino)ethyl)-3-(3-(1-methyl-1H-pyrazol-4-yl)phenethoxy)propanamide Trifluoroacetic Acid Salt]
7 | 1.03 | 12.6 nM | > 10000 nM | 3160 nM | Cc1nc(-c2cccc(CCOCCC(=O)N(CCNCCc3ccc(O)c4c3OCC(=O)N4)C3CCCCC3)c2)cn1C [Example 35, N-Cyclohexyl-3-(3-(1,2-dimethyl-1H-imidazol-4-yl)phenethoxy)-N-(2-(2-(5-hydroxy-3-oxo-3,4-dihydro-2H-benzo[b][1,4]oxazin-8-yl)ethylamino)ethyl)propanamide Trifluoroacetic Acid Salt]
8 | 0.85 | 6.31 nM | > 10000 nM | 1580 nM | Cc1c(-c2cccc(CCOCCC(=O)N(CCNCCc3ccc(O)c4c3OCC(=O)N4)C3CCCCC3)c2)cnn1C [Example 37, N-Cyclohexyl-3-(3-(1,5-dimethyl-1H-pyrazol-4-yl)phenethoxy)-N-(2-(2-(5-hydroxy-3-oxo-3,4-dihydro-2H-benzo[b][1,4]oxazin-8-yl)ethylamino)ethyl)propanamide Trifluoroacetic Acid Salt]
9 | 1.00 | 7.94 nM | 5010 nM | 631 nM | Cc1nc(-c2cccc(CCOCCC(=O)N(CCNCCc3ccc(O)c4c3OCC(=O)N4)C3CCCCC3)c2)[nH]c1C [Example 32, N-Cyclohexyl-3-(3-(4,5-dimethyl-1H-imidazol-2-yl)phenethoxy)-N-(2-(2-(5-hydroxy-3-oxo-3,4-dihydro-2H-benzo[b][1,4]oxazin-8-yl)ethylamino)ethyl)propanamide]
10 | 0.90 | 6.31 nM | > 10000 nM | > 5010 nM | CCn1cc(-c2cccc(CCOCCC(=O)N(CCNCCc3ccc(O)c4c3OCC(=O)N4)C3CCCCC3)c2)cn1 [Example 28, N-Cyclohexyl-3-(3-(1-ethyl-1H-pyrazol-4-yl)phenethoxy)-N-(2-(2-(5-hydroxy-3-oxo-3,4-dihydro-2H-benzo[b][1,4]oxazin-8-yl)ethylamino)ethyl)propanamide]
11 | 0.93 | 12.6 nM | 3980 nM | 2510 nM | CCCC[C@@H](C)N(CCNCCc1ccc(O)c2c1OCC(=O)N2)C(=O)CCOCCc1cccc(-c2cnn(C)c2)c1 [Example 30, (R)—N-(Hexan-2-yl)-N-(2-(2-(5-hydroxy-3-oxo-3,4-dihydro-2H-benzo[b][1,4]oxazin-8-yl)ethylamino)ethyl)-3-(3-(1-methyl-1H-pyrazol-4-yl)phenethoxy)propanamide Trifluoroacetic Acid Salt]
